Measured values published in patent US12600740B2, “Fluorinated N-acetyl glucosamine analogs and xylose derivatives” (UTI Limited Partnership, priority 2018, dated 2026).

Tests used:
[1] = tested on: oligodendrocyte precursor cells (OPCs); assay: Growth of OPCs on astrocyte-secreted extracellular matrix; format: cell-based, mouse; details: for mean process outgrowth of OPCs on astrocyte ECM: astrocytes treated 48 hours, then removed, OPCs plated on matrix; for Enhance OPC outgrowth: OPCs on inhibitory astrocyte matrix, significance class
Excerpt: The process of remyelination requires oligodendrocyte lineage cells to undergo process outgrowth prior to their expression of mature myelin proteins for repair. Thus, process outgrowth in culture by cells of the oligodendrocyte lineage has been used as one surrogate for myelinating potential in vivo [Keough, M. B.; Rogers, J. A.; Zhang, P.; Jensen, S. K.; Stephenson, E. L.; Chen, T.; Hurlbert, M. G.; Lau, L. W.; Rawji, K. S.; Plemel, J. R. et al. An inhibitor of chondroitin sulfate proteoglycan synthesis promotes central nervous system remyelination. Nat. Commun. 2016, 7, 11312], since an oligodendrocyte needs to elaborate multiple protrusions emanating in several directions to contact many axons, and where these processes then compact around axons to form myelin segments. The presence of CSPGs in culture impairs the process outgrowth of OPCs, and this has been linked to reduced remyelination capacity in vivo [Keough, M. B.; Rogers, J. A.; Zhang, P.; Jensen, S. K.; Stephenson, E. L.; Chen, T.; Hurlbert, M. G.; Lau, L. W.; Rawji, K. S.; Plemel, J. R. et al. An inhibitor of chondroitin sulfate proteoglycan synthesis promotes central nervous system remyelination. Nat. Commun. 2016, 7, 11312]. It was reported previously that astrocytes in culture produce a plate-bound matrix abundant in CSPGs, that is left behind once astrocytes are removed from the plate, and this CSPG-containing matrix inhibits the outgrowth of plated OPCs [Keough, M. B. et al. An inhibitor of chondroitin sulfate proteoglycan synthesis promotes central nervous system remyelination. Nature communications 7, 11312 (2016)] (FIG. 7a). Thus, astrocytes were treated with test compounds for 48 hours and they were then removed from the cell culture plate leaving only their secreted ECM behind (FIG. 7a). When OPCs were plated on the astrocyte matrix, the extent of their process outgrowth over […] of observation was inhibited (FIG. 7b). […] OPCs growing in the absence of astrocyte ECM can reach a mean outgrowth around 300 μm (FIG. 7b,c). […] These compounds were: Ac-4,4-diF-GlcNAc 16 (Ac-4,4-diF-GlcNAc), fluorosamine 3 and its O1-deacetylated analog 10 (Ac-4-F-GlcNAcOH), anomeric O-propanoate 7, anomeric O-butanoate 8 (Ac-4-F-GlcNAcOBu), and the 4-fluorinated GalNAc derivative 13 (Ac-4-F-GalNAc) (FIG. 7c).
In brief, cortices from postnatal days 1-3 mouse brains were dissociated with papain digestion and then plated as a mixed culture for 7 days in a 37° C. incubator at 8.5% CO2 whereupon OPCs and microglia tended to be loosely attached on top of a monolayer of astrocytes; the OPCs and microglia were then shaken off when placed on an orbital shaker at 220 r.p.m. at 37° C. and 5% CO2 overnight. The media containing microglia and OPCs were collected and added to a 100 mm tissue culture dish and left at 37° C. and 5% CO2 for 30 min, to allow preferential adhesion of microglia. The media were collected again, now containing OPCs, and used as the OPC-enriched isolates for experiments. For the remaining adhered cells, largely astrocytes, these were removed with 0.25% trypsin and after centrifugation and washing, these astrocytes were plated at a density of 1.0×10^5 cells in flat bottom 96-well plates coated with 10 μg/ml poly-L-lysine. Cells were grown for 7 days at 37° C. and 5% CO2 in MGM and daily media changes. Astrocytes were carefully removed with EDTA treatment (0.2 g EDTA (Na4) per liter PBS, 30 minutes at 37° C. and 5% CO2) and mechanical dislodgement with a micropipetter. The remaining ECM left behind was covered with PBS at 4° C. until OPCs were seeded. Enriched OPCs from mixed glial cultures were seeded at a density of 5-10×10^4 cells per well in OPC media and grown at 37° C. and 8.5% CO2 for 18-24 h and then were fixed with 4% ice-cold paraformaldehyde at 4° C. for 10 min, rinsed with PBS, and stored at 4° C. until immunocytochemistry. […]

[2] = tested on: human neurons; assay: Human neuron ATP luminescence assay; format: cell-based; details: 100 μM
Protocol: If the sugar compounds are to be used in neurological disorders, they should not display toxicity to neural cells. Thus, human neurons were used to test the compounds, and the ATP luminescence assay as a readout of metabolic stress and a surrogate of toxicity. Compounds were tested at a high dose of 100 μM. […] Two compounds that reduced ATP production by more than 50% were the 4-fluorinated hemiacetals that respectively bear O3,O6-diacetates 10 (Ac-4-F-GlcNAcOH) and O3,O6-dipropanoates 11 (Pr-4-F-GlcNAcOH), with the former displaying higher cytotoxicity than the latter (FIG. 6d).
Human fetal neurons were plated at 10×10^4 cells/well in 96 well plates as previously described [Vecil, G. G. et al. Interleukin-1 is a key regulator of matrix metalloproteinase-9 expression in human neurons in culture and following mouse brain trauma in vivo. Journal of Neuroscience Research 61, 212-224 (2000)]. After 24 hours neurons were treated with 100 μM compounds and incubated for 24 hours. The ATP assay (CellTiter-Glo Luminescent Cell Viability Assay; Promega, Madison, WI, USA) was then performed to test for toxicity according to manufacturer's instructions.

[3] = tested on: splenocytes; assay: Splenocyte thymidine proliferation assay (anti-CD3/anti-CD28); format: cell-based, mouse; details: for splenocyte proliferation: 25 μM, 48 hours; for Reduce T cell proliferation: activated splenocytes, significance class
Protocol: It was assessed whether the glucosamine analogs have immunomodulatory properties on splenocytes isolated in culture. T cells within the splenocyte pool were polyclonally activated with anti-CD3 and anti-CD28 antibodies in the presence of compounds for 48 hours, and proliferation was determined by the uptake of tritiated thymidine and expressed as counts per minute. The relative change in proliferation of treated versus control splenocytes was taken in order to rank the compounds across multiple independent experiments (FIG. 8a).
The spleens were isolated from 8-10-week-old female C57BL/6 mice and homogenized. The cells were isolated by Ficoll gradient and spun for 30 min at 1,800 r.p.m. The cell suspension was removed and the cells were washed once with PBS. The cell pellet was subsequently re-suspended in Roswell Park Memorial Institute media containing 10% fetal bovine serum, 1% penicillin/streptomycin, 1% sodium pyruvate and 1% L-glutamine. Trypan blue exclusion was used to count live cells, and the cells were plated at 2.5×10^5 cells per well in a round-bottom 96-well plate and activated with 1,000 ng/ml plate-bound anti-CD3 and 1,000 ng/ml anti-CD28 suspended in media to preferentially activate T lymphocytes. Compounds were added at final concentrations of 25 μM. The cells were kept at 37° C. and 5% CO2 for 30 h, after which 10 μl/well (1 μCi per well) of 3H-thymidine was added for 18 h. The cells containing thymidine were harvested onto filter mats using a cell harvester and mats were allowed to dry for 24 h. The results were read by liquid scintillation counts.

Structure (SMILES): CCCC(=O)OC1OC(COC(C)=O)[C@@H](F)[C@H](OC(C)=O)C1NC(C)=O (mixture of isomers) [Compound 8, 2-Acetamido-3,6-di-O-acetyl-1-O-butanoyl-2,4-dideoxy-4-fluoro-α/β-D-glucopyranose]
- mean process outgrowth of OPCs on astrocyte ECM [1]: effective at improving mean outgrowth of OPCs

Structure (SMILES): CC(=O)NC1C(O)OC(COC(C)=O)[C@@H](F)[C@@H]1OC(C)=O (mixture of isomers) [Compound 10]
- mean process outgrowth of OPCs on astrocyte ECM [1]: effective at improving mean outgrowth of OPCs
- cytotoxicity on neurons [2]: showed evidence of toxicity on neurons

Structure (SMILES): CC(=O)NC1C(OC(C)=O)OC(COC(C)=O)[C@H](F)[C@@H]1OC(C)=O (mixture of isomers) [Compound 13, 2-Acetamido-1,3,6-tri-O-acetyl-2,4-dideoxy-4-fluoro-α/β-D-galactopyranose]
- mean process outgrowth of OPCs on astrocyte ECM [1]: effective at improving mean outgrowth of OPCs

Structure (SMILES): CC(=O)NC1C(OC(C)=O)OC(COC(C)=O)C(F)(F)[C@@H]1OC(C)=O (mixture of isomers) [Compound 16, 2-Acetamido-1,3,6-tri-O-acetyl-2,4-dideoxy-4,4-difluoro-α/β-D-xylo-hexopyranose]
- mean process outgrowth of OPCs on astrocyte ECM [1]: effective at improving mean outgrowth of OPCs
- cytotoxicity on neurons [2]: no signs of toxicity in neurons

Structure (SMILES): CC(=O)N[C@H]1[C@H](OC(C)=O)O[C@H](COC(C)=O)[C@@H](OC(C)=O)[C@@H]1OC(C)=O [Compound 1, reference compound]
- Enhance OPC outgrowth [1]: n.s.
- splenocyte proliferation [3]: reduced splenocyte proliferation
- Reduce T cell proliferation [3]: **** (****p < 0.0001)

Structure (SMILES): CC(=O)NC1C(OC(C)=O)OC(COC(C)=O)[C@@H](F)C1OC(C)=O (some centres unmarked) [Compound 3, reference compound]
- Enhance OPC outgrowth [1]: ** (**p < 0.01)
- mean process outgrowth of OPCs on astrocyte ECM [1]: effective at improving mean outgrowth of OPCs
- Reduce T cell proliferation [3]: **** (****p < 0.0001)

Structure (SMILES): CCC(=O)OC1OC(COC(C)=O)[C@@H](F)[C@H](OC(C)=O)C1NC(C)=O (stereo partly drawn) [Compound 7, 2-Acetamido-3,6-di-O-acetyl-2,4-dideoxy-4-fluoro-1-O-propanoyl-α/β-D-glucopyranose]
- mean process outgrowth of OPCs on astrocyte ECM [1]: effective at improving mean outgrowth of OPCs

Structure (SMILES): CCCC(=O)OC[C@H]1OC(O)[C@H](NC(C)=O)[C@@H](OC(=O)CCC)[C@@H]1F (stereo partly drawn) [Compound 12, 2-Acetamido-3,6-di-O-butanoyl-2,4-dideoxy-4-fluoro-α/β-3-D-glucopyranose]
- Enhance OPC outgrowth [1]: n.s.
- splenocyte proliferation [3]: reduced splenocyte proliferation
- Reduce T cell proliferation [3]: ** (**p < 0.01)
- cytotoxicity on neurons [2]: showed no cytotoxicity
